Measurements reported in publication PMC3919815, “Anti-Tumor Effects of Novel 5-O-Acyl Plumbagins Based on the Inhibition of Mammalian DNA Replicative Polymerase Activity” (PLoS ONE, 2014).
Values joined by “and” are separate entries in the source; they are usually repeats but may differ in a detail not shown here. Equal entries are not always repeated.

How the values were obtained:
[1] = molecular target: T1, Bovine deoxyribonuclease I (Bos taurus, UniProt P00639); experiment: Other DNA metabolic enzyme assay; assay type: biochemical
T1 construct: Bovine pancreas deoxyribonuclease I was obtained from Stratagene Cloning Systems; purchased Stratagene Cloning Systems (La Jolla, CA, USA); host or cells: bovine pancreas
Text: (§1) Pol α was purified from calf thymus by immunoaffinity column chromatography as described by Tamai et al.. Recombinant rat pol β was purified from Escherichia coli JMpβ5 as described by Date et al.. The human pol γ catalytic gene was cloned into pFastBac. Histidine-tagged enzyme was expressed using the BACTO-BAC HT Baculovirus Expression System according to the manufacturer's instructions (Life Technologies, Frederick, MD, USA) and purified using ProBound resin (Invitrogen Japan, Tokyo Japan). Human pols δ and ε were purified by nuclear fractionation of human peripheral blood cancer cells (Molt-4) using the second subunit of pol δ and ε-conjugated affinity column chromatography, respectively. A truncated form of human pol η (residues 1–511) tagged with His6 at its C-terminal was expressed in E. coli cells and purified as described by Kusumoto et al.. A recombinant mouse pol ι tagged with His6 at its C-terminal was expressed and purified by Ni–NTA column chromatography. A truncated form of pol κ (residues 1–560) with 6× His-tags attached at the C-terminus was overexpressed in E. coli and purified as described by Ohashi et al.. Recombinant human His-pol λ was overexpressed and purified according to a method described by Shimazaki et al.. Recombinant human His-pol μ was overexpressed in E. coli BL21 and purified using Glutathione Sepharose 4B (GE Healthcare Bio-Science Corp., Piscataway, NJ, USA) column chromatography according to the method for pol λ preparation by Shimazaki et al.. Pol α from a higher plant, cauliflower, was purified from the inflorescence structure according to the methods outlined by Sakaguchi et al.. Recombinant rice (Oryza sativa L. cv. Nipponbare) pol λ tagged with His6 at the C-terminus was expressed in E. coli and purified as described by Uchiyama et al.. Calf TdT, Taq pol, T4 pol, T7 RNA polymerase, and T4 polynucleotide kinase were purchased from Takara Bio Inc. (Kyoto, Japan). The Klenow fragment of pol I from E. coli was purchased from Worthington Biochemical Corp. (Freehold, NJ, USA). Bovine pancreas deoxyribonuclease I was obtained from Stratagene Cloning Systems (La Jolla, CA, USA).
(§2) The activities of calf primase of pol α, T7 RNA polymerase, mouse inosine-5′-[…] (IMP) dehydrogenase (type II), T4 polynucleotide kinase, and bovine deoxyribonuclease I were measured in standard assays according to the manufacturer's specifications, as described by Tamiya-Koizumi et al., Nakayama and Saneyoshi, Mizushina et al., Soltis et al., and Lu and Sakaguchi, respectively.

T4 polynucleotide kinase = molecular target: T2, T4 polynucleotide kinase (Enterobacteria phage T4, UniProt P06855); experiment: Other DNA metabolic enzyme assay; assay type: biochemical
T2 construct: purchased Takara Bio Inc. (Kyoto, Japan)
Text: as §1, §2

T7 RNA polymerase = molecular target: T3, T7 RNA polymerase (Escherichia phage T7, UniProt P00573); experiment: Other DNA metabolic enzyme assay; assay type: biochemical
T3 construct: purchased Takara Bio Inc. (Kyoto, Japan)
Text: as §1, §2

A549 (lung cancer) = experiment: Cancer cell viability, MTT assay; assay type: cell-based, human; conditions: 48 h, mean ± SD (n = 5)
Procedure: (§3) The following human cancer cell lines were obtained from the American Type Culture Collection (Manassas, VA, USA): lung (A549), prostate (DU145 and PC3), colon (HCT116 and HT-29), cervix (HeLa), hepatocellular liver (HepG2), breast (MCF-7), and pancreatic cancer (PANC-1). These cells were cultured in RPMI 1640 medium supplemented with 10% fetal bovine serum, penicillin (100 units/mL), streptomycin (100 µg/mL), and 1.6 mg/mL NaHCO3 at 37°C in a humid atmosphere of 5% CO2/95% air. For the cell viability assay, cells were seeded at 1×10^3 cells/well in a 96-well microplate with various concentrations of the test compounds, and incubated for 48 h. MTT (3-(4,5-dimethylthiazol-2-yl)-2,5-diphenyl tetrazolium bromide) solution was added to a final concentration 0.6 mg/mL in Milli-Q purified water for 2 h, after which time the medium was discarded and the cells lysed in DMSO. A540 was then measured in a microplate reader (Model 680, Bio-Rad Laboratories, Hercules, CA, USA).

DU145 (prostate cancer) = experiment: Cancer cell viability, MTT assay; assay type: cell-based, human; conditions: 48 h, mean ± SD (n = 5)
Procedure: as §3

HCT116 (colon cancer) = experiment: Cancer cell viability, MTT assay; assay type: cell-based, human; conditions: 48 h
Procedure: as §3

[2] = tested on: HT-29 cells (colon cancer); experiment: Cancer cell viability, MTT assay; assay type: cell-based, human; conditions: 48 h, mean ± SD (n = 5)
Procedure: as §3

HeLa (cervical cancer) = experiment: Cancer cell viability, MTT assay; assay type: cell-based, human; conditions: 48 h, mean ± SD (n = 5)
Procedure: as §3

[3] = tested on: HepG2 (hepatocellular liver cancer); experiment: Cancer cell viability, MTT assay; assay type: cell-based, human; conditions: 48 h, mean ± SD (n = 5)
Procedure: as §3

MCF-7 (breast cancer) = experiment: Cancer cell viability, MTT assay; assay type: cell-based, human; conditions: 48 h, mean ± SD (n = 5)
Procedure: as §3

[4] = tested on: PANC-1 (pancreatic cancer); experiment: Cancer cell viability, MTT assay; assay type: cell-based, human; conditions: 48 h, mean ± SD (n = 5)
Procedure: as §3

PC3 (prostate cancer) = experiment: Cancer cell viability, MTT assay; assay type: cell-based, human; conditions: 48 h, mean ± SD (n = 5)
Procedure: as §3

[5] = Stability under basic conditions (Triton B, UV-vis); assay type: physicochemical; conditions: 1 equivalent Triton B in 1,4-dioxane and MeOH, 1.1×10^−3 M, 25°C
Procedure: A 2.2×10^−2 M solution of Triton B in MeOH was added to a 2.2×10^−2 M solution of each sample in 1,4-dioxane. Then, the mixture was diluted with 1,4-dioxane to a concentration of 1.1×10^−3 M. Then, the stability of each compound was monitored by UV-vis spectroscopy. UV-vis spectra were measured at 25°C on a UV-vis spectrophotometer (JASCO V-650, Tokyo, Japan). For comparison, UV-vis spectra of 1.1×10^−3 M solution of C18:1-acyl plumbagin (2f), and C18:1-acyl juglone (5f) in 1,4-dioxane and MeOH (19/1, v/v) were measured.

T3 sequence (P00573 whole entry): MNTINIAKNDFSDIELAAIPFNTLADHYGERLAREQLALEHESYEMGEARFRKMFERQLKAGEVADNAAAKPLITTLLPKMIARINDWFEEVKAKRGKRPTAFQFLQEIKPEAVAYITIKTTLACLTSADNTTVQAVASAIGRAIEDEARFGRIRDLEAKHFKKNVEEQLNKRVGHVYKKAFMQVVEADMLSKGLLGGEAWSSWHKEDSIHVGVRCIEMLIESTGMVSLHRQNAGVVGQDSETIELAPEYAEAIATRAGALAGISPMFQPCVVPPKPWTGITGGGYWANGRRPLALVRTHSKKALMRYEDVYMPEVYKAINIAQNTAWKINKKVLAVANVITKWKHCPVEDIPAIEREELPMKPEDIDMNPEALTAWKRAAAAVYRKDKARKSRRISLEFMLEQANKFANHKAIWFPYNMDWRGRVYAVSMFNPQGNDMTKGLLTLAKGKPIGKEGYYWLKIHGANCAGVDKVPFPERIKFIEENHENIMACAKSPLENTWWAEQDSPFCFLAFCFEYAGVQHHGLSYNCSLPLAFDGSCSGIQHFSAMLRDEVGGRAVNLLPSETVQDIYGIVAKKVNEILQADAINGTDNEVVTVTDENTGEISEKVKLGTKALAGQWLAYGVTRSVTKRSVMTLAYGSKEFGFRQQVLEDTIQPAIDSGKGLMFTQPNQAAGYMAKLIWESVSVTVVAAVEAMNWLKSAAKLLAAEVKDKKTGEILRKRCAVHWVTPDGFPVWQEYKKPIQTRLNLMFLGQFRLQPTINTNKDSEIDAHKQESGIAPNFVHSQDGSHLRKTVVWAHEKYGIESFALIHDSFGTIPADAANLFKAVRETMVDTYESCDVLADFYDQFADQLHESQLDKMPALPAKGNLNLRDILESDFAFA
T2 sequence (P06855 whole entry): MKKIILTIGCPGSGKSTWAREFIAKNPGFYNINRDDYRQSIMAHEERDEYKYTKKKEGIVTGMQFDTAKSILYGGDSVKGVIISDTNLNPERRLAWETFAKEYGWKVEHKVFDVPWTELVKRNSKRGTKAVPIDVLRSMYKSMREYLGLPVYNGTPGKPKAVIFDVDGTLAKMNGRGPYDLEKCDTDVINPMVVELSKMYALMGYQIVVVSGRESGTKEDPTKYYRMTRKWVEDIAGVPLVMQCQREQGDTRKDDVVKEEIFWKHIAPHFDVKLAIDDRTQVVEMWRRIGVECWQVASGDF
T1 sequence (P00639 23-282): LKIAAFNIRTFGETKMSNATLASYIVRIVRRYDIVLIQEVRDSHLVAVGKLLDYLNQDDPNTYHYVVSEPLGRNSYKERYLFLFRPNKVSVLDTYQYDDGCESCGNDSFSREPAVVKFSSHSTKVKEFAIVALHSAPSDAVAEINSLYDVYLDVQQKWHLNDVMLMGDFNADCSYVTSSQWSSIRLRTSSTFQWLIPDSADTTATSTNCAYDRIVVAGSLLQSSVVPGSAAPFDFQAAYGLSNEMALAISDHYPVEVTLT

In the case of `CCCCCCCC/C=C\CCCCCCCC(=O)Oc1cccc2c1C(=O)C=C(C)C2=O` [2f, 5-O-oleoyl-2-methyl-1,4-naphthoquinone], the “effect on enzyme activity (in words)” value [1] is reported as “did not inhibit”, the IC50 ([1]; 0.05 units enzyme) is reported as greater than 100 µM and the “effect on enzyme activity (in words)” value (T4 polynucleotide kinase) is reported as “did not inhibit”. For the same compound, the IC50 (T4 polynucleotide kinase; 0.05 units enzyme) was greater than 100 µM, the “effect on enzyme activity (in words)” value (T7 RNA polymerase) was “did not inhibit” and the IC50 (T7 RNA polymerase; 0.05 units enzyme) was greater than 100 µM. The LD50 values (A549 (lung cancer)) was 15.4 ± 1.7 µM, the LD50 values (DU145 (prostate cancer)) was 8.8 ± 0.9 µM and the cell proliferation rate (HCT116 (colon cancer); 10 µM, MTT, control = 100%) was “less than 40%”. The “cell proliferation inhibitory effect compared among the compounds (in words)” value (HCT116 (colon cancer); 10 and 100 µM, MTT, Fig. 5) was “strongest effects on cancer cell proliferation suppression”, the LD50 values (HCT116 (colon cancer); MTT assay, mean ± SD (n = 5)) was 6.5 µM and 6.5 ± 0.6 µM and the LD50 values [2] was 2.9 ± 0.4 µM. For the same compound, the LD50 values ([2]; listed as C18:1-acyl plumbagin) was 2.9 µM, the LD50 values (HeLa (cervical cancer)) was 21.0 ± 2.5 µM and the LD50 values [3] was 7.4 ± 0.8 µM. It also gave an LD50 values (MCF-7 (breast cancer)) of 7.2 ± 0.7 µM, an LD50 values [4] of 16.1 ± 1.8 µM and an LD50 values (PC3 (prostate cancer)) of 10.0 ± 1.1 µM. The “stability under basic conditions (UV spectra)” value [5] was “Almost no changes in UV spectra”.
